pIC50: −log10 of the molar value.
Columns and labels:
[1] = biological target: T1, Bone morphogenetic protein 1 (Homo sapiens, UniProt P13497); test: Inhibition of C-terminal FLAG-6x-His epitope tagged and N-terminal human RAGE signal sequence tagged human BMP1 (23 to 721 amino acids) expressed in CHO-E1A cells pre-incubated for 10 mins before promyostatin peptide substrate addition and measured after 60 mins using 0.5 nM BMP1 by FRET based assay; type: cell-based
T1 sequence (P13497 whole entry): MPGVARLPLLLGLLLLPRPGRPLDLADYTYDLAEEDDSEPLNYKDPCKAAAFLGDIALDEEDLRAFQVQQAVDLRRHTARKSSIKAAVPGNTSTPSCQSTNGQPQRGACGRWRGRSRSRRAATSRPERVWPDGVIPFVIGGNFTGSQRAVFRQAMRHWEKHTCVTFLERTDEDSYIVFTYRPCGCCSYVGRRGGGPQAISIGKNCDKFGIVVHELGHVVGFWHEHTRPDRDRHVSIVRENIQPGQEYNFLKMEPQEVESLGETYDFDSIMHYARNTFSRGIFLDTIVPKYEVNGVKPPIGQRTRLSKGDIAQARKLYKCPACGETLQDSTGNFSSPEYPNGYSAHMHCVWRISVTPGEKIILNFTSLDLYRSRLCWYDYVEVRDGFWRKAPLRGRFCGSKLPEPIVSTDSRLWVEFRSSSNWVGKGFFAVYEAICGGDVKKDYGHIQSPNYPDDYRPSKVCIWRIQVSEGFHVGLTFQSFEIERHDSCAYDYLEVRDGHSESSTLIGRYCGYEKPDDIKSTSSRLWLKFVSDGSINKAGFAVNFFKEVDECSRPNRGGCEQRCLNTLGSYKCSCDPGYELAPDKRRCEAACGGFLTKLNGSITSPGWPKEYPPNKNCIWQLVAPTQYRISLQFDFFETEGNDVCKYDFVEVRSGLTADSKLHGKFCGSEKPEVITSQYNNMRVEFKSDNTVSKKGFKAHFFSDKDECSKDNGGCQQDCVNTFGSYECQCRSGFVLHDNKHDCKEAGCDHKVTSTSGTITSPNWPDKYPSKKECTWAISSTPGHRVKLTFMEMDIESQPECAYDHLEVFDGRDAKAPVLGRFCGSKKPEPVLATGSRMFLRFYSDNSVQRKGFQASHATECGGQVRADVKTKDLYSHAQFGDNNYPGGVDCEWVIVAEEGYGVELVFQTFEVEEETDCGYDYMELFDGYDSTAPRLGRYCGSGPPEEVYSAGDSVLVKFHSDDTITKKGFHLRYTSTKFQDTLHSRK

[2] = biological target: T1, Bone morphogenetic protein 1; test: Inhibition of C-terminal FLAG-6x-His epitope tagged and N-terminal human RAGE signal sequence tagged human BMP1 (23 to 721 amino acids) expressed in CHO-E1A cells pre-incubated for 10 mins before promyostatin peptide substrate addition and measured after 30 mins using 50 nM BMP1 by FRET based assay; type: cell-based
Tolloid-like protein 1 = Tolloid-like protein 1 (Homo sapiens, UniProt O43897, I156V/N221S/V284A); test: Inhibition of recombinant human TLL1 I156V/N221S/V284A mutant expressed in CHOE1A cells pre-incubated for 10 mins before promyostatin peptide substrate addition and measured after 60 mins by FRET based assay; type: cell-based
Sequence of Tolloid-like protein 1 (O43897 148-1013 I156V/N221S/V284A limits assumed): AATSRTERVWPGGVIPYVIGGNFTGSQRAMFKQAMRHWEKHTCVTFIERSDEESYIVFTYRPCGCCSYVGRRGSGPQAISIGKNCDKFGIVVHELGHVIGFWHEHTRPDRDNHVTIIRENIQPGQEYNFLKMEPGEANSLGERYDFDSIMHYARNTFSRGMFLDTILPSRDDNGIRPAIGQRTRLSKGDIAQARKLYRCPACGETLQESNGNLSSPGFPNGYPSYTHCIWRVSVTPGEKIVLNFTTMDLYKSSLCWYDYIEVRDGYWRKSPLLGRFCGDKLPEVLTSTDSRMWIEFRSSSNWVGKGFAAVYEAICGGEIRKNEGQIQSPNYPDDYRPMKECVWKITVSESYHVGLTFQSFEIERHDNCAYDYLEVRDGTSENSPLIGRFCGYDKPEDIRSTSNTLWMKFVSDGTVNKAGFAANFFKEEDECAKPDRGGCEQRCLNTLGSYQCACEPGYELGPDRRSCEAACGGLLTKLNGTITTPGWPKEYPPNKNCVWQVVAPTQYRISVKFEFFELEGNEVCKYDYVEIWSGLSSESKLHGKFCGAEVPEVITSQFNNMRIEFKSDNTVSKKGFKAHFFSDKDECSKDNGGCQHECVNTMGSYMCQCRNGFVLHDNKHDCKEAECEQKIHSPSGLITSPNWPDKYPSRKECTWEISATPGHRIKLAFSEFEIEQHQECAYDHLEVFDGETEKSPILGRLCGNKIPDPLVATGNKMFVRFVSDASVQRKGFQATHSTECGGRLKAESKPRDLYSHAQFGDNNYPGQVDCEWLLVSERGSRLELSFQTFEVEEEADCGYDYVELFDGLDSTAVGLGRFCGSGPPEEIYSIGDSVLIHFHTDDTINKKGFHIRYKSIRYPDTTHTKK

Tolloid-like protein 2 = biological target: T2, Tolloid-like protein 2 (Homo sapiens, UniProt Q9Y6L7); test: Inhibition of C-terminal Avi-6x-His epitope tagged and N-terminal human RAGE signal sequence tagged recombinant human TLL2 (26 to 1015 amino acids) expressed in CHOE1A cells incubated for 60 mins with promyostatin peptide substrate by FRET based assay; type: cell-based
T2 sequence (Q9Y6L7 whole entry): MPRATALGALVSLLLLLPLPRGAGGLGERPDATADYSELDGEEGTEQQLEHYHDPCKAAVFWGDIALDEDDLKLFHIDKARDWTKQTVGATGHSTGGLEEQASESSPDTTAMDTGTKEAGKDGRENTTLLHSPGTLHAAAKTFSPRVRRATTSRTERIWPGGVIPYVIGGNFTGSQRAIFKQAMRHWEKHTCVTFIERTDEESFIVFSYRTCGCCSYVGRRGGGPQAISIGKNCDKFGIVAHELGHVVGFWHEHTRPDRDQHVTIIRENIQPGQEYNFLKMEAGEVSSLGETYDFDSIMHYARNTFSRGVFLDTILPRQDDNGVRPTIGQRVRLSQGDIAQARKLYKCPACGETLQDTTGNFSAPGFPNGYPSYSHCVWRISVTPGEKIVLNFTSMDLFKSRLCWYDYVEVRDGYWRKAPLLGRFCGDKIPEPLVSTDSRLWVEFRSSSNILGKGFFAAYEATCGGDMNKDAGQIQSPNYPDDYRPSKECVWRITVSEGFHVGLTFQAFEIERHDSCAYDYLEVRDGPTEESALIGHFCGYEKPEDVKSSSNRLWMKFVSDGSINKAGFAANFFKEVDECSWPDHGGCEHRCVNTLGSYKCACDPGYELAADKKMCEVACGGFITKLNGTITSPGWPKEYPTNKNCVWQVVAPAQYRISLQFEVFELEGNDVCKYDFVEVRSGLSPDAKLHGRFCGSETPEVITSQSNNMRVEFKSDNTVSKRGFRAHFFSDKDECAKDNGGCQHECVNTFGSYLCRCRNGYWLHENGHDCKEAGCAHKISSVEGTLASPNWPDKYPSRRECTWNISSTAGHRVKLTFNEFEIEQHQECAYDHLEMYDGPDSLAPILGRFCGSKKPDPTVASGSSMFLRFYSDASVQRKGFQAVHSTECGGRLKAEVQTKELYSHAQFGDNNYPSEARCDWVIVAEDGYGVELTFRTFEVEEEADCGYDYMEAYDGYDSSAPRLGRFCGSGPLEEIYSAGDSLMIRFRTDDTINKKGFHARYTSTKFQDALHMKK

[3] = Reduction in PICP levels in human cardiac fibroblasts incubated for 24 to 48 hrs by ELISA; type: functional
[4] = Reduction in mature collagen deposition levels in human cardiac fibroblasts incubated for 24 to 48 hrs by immunostaining based assay; type: functional

SMILES	pIC50 [1]	pIC50 [2]	pIC50 (Tolloid-like protein 1)	pIC50 (Tolloid-like protein 2)	pIC50 [3]	pIC50 [4]
CCCCC[C@@H](C(=O)NCNC(=O)c1cncc(-c2ccc(P(=O)(O)O)c(OCC)c2)n1)[C@@H](CC)N(O)C=O	> 6.90	> 6.60	> 6.40	> 6.20	> 4.70	> 5.80
CCCCC[C@@H](C(=O)NCNC(=O)c1ccnc(-c2ccc(P(=O)(O)O)c(OCC)c2)n1)[C@@H](CC)N(O)C=O	> 6.90	> 6.60	> 6.40	> 6.20	> 4.70	> 5.80
CCCCC[C@@H](C(=O)NCNC(=O)c1cccc(-c2cc(C(=O)O)cc(S(N)(=O)=O)c2)n1)[C@@H](CC)N(O)C=O	> 6.90	> 6.60	> 6.40	> 6.20	> 4.70	> 5.80

The next lines start with results.

pIC50 [1]	pIC50 [2]	pIC50 (Tolloid-like protein 1)	pIC50 (Tolloid-like protein 2)	SMILES	pIC50 [3]	pIC50 [4]
> 6.90	> 6.60	> 6.40	> 6.20	CCCCC[C@@H](C(=O)NCNC(=O)c1ccnc(-c2ccc(C(=O)O)c(OCC)c2)n1)[C@@H](CC)N(O)C=O	> 4.70	> 5.80
> 6.90	> 6.60	> 6.40	> 6.20	CCCCC[C@@H](C(=O)NCNC(=O)c1cccc(-c2ccc(CC(=O)O)c(OCC)c2)c1)[C@@H](CC)N(O)C=O	> 4.70	> 5.80
> 6.90	> 6.60	> 6.40	> 6.20	CCCCC[C@@H](C(=O)NCNC(=O)c1cccc(-c2ccc(C(=O)N[C@@H](CC(=O)O)C(=O)O)c(OCC)c2)n1)[C@@H](CC)N(O)C=O	> 4.70	> 5.80
